The values that follow come from patent US11590139B2, “Substituted aminopurine compounds, compositions thereof, and methods of treatment therewith” (Signal Pharmaceuticals, LLC, priority 2014, dated 2023).

For the first assay, the system named is Lox-IMVI melanoma cell line. The experiment in a line: Lox-IMVI anti-proliferative assay (growth inhibition, Cell Titer-Glo). It is filed as cell-based, human. Conditions: Homo sapiens; IC50 activity level in the cell-based Lox-IMVI anti-proliferative assay; read-out: Activity. An outline of the steps: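 First, compound was dispensed as a 10-point 3-fold series (0.5 nM–10 μM, duplicate). Then cells in RPMI + 10% FBS were added and grown 72 h at 37 °C with 0.2% DMSO. Finally, ATP luminescence was read and IC50 calculated versus DMSO control.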
A general note: Cellular ATP, detected with luciferase, serves as a proxy for viable cell number.
In the case of `N#Cc1cc(Cl)c(Nc2nc3cnc(NC4CCC4)nc3n2[C@H]2CC[C@@H](C(N)=O)CC2)c(Cl)c1` [Example 392, (1s,4s)-4-(2-(cyclobutylamino)-8-(2,6-dichloro-4-cyanophenylamino)-9H-purin-9-yl)cyclohexanecarboxamide], the IC50 is less than 0.25 µM.
For `NC(=O)[C@H]1CC[C@@H](n2c(Nc3cc(Cl)c(Cl)cc3Cl)nc3cnc(NC4CCOCC4)nc32)CC1` [Example 65, (1s,4s)-4-(2-(tetrahydro-2H-pyran-4-ylamino)-8-(2,4,5-trichlorophenylamino)-9H-purin-9-yl)cyclohexanecarboxamide], the IC50 is more than 1 µM.
The same measure, in the same setting: for `C[C@H](CO)Nc1ncc2nc(Nc3c(F)cc(Cl)cc3F)n([C@H]3CC[C@@H](C(N)=O)CC3)c2n1` [Example 132, (1S,4s)-4-(8-(4-chloro-2,6-difluorophenylamino)-2-((R)-1-hydroxypropan-2-ylamino)-9H-purin-9-yl)cyclohexanecarboxamide] the value was more than 1 µM; for `CC(C)Nc1ncc2nc(Nc3c(F)cc(F)cc3Cl)n([C@H]3CC[C@@H](C(N)=O)CC3)c2n1` [Example 125, (1s,4s)-4-(8-(2-chloro-4,6-difluorophenylamino)-2-(isopropylamino)-9H-purin-9-yl)cyclohexanecarboxamide], 0.5 to 1 µM.
In the case of `NC(=O)[C@H]1CC[C@@H](n2c(Nc3c(Cl)cc(Cl)cc3Cl)nc3cnc(NC4CCS(=O)(=O)CC4)nc32)CC1` [Example 92, (1s,4s)-4-(2-((1,1-dioxidotetrahydro-2H-thiopyran-4-yl)amino)-8-((2,4,6-trichlorophenyl)amino)-9H-purin-9-yl)cyclohexane-1-carboxamide], the IC50 is more than 1 µM.
On the same count and under the same terms, for `CC(C)Nc1ncc2nc(Nc3c(F)cc(Cl)cc3Cl)n([C@H]3CC[C@@H](C(N)=O)CC3)c2n1` [Example 99, (1s,4s)-4-(8-(2,4-dichloro-6-fluorophenylamino)-2-(isopropylamino)-9H-purin-9-yl)cyclohexanecarboxamide] the value was 0.25 to 0.5 µM; for `NC(=O)[C@H]1CC[C@@H](n2c(Nc3c(F)cc(Cl)cc3F)nc3cnc(N[C@H]4CCC[C@@H]4O)nc32)CC1` [Example 269, (1R,4s)-4-(8-(4-chloro-2,6-difluorophenylamino)-2-((1S,2S)-2-hydroxycyclopentylamino)-9H-purin-9-yl)cyclohexanecarboxamide], more than 1 µM.
On the same count and under the same terms, the figure for `NC(=O)[C@H]1CC[C@@H](n2c(Nc3c(F)cc(Cl)cc3Cl)nc3cnc(N[C@@H]4CCC[C@H]4O)nc32)CC1` [Example 255, (1S,4s)-4-(8-(2,4-dichloro-6-fluorophenylamino)-2-((1R,2R)-2-hydroxycyclopentylamino)-9H-purin-9-yl)cyclohexanecarboxamide] is more than 1 µM; for `NC(=O)[C@H]1CC[C@@H](n2c(Nc3ccc(Cl)cc3Cl)nc3cnc(NC4CCC(F)(F)CC4)nc32)CC1` [Example 240, (1s,4s)-4-(8-(2,4-dichlorophenylamino)-2-(4,4-difluorocyclohexylamino)-9H-purin-9-yl)cyclohexanecarboxamide] it is more than 1 µM.
Still for that read-out and setting: for `CC(C)Nc1ncc2nc(Nc3c(Cl)cccc3Cl)n([C@H]3CC[C@@H](C(N)=O)CC3)c2n1` [Example 52] the value was more than 1 µM; for `C[C@@H]1CC[C@@H](Nc2ncc3nc(Nc4c(F)cc(Cl)cc4F)n([C@H]4CC[C@@H](C(N)=O)CC4)c3n2)C[C@H]1O` [Example 356, (1S,4s)-4-(8-(4-chloro-2,6-difluorophenylamino)-2-((1R,3R,4R)-3-hydroxy-4-methylcyclohexylamino)-9H-purin-9-yl)cyclohexanecarboxamide], more than 1 µM.
As to `NC(=O)[C@H]1CC[C@@H](n2c(Nc3c(Cl)cc(F)cc3Cl)nc3cnc(NC4COCC4O)nc32)CC1` (stereo partly shown) [Example 183, (1s,4s)-4-(8-(2,6-dichloro-4-fluorophenylamino)-2-(4-hydroxytetrahydrofuran-3-ylamino)-9H-purin-9-yl)cyclohexanecarboxamide], the IC50 was more than 1 µM.
On to `CC1(C)CC[C@@H](Nc2ncc3nc(Nc4c(F)cc(F)cc4Cl)n([C@H]4CC[C@@H](C(N)=O)CC4)c3n2)C[C@H]1O` [Example 385, (1S,4s)-4-(8-(2-chloro-4,6-difluorophenylamino)-2-((1R,3R)-3-hydroxy-4,4-dimethylcyclohexylamino)-9H-purin-9-yl)cyclohexanecarboxamide], for which the IC50 was more than 1 µM.
Same read-out and setting: for `Cc1cc(F)cc(Cl)c1Nc1nc2cnc(NC3CCOCC3)nc2n1[C@H]1CC[C@@H](C(N)=O)CC1` [Example 74, (1s,4s)-4-(8-(2-chloro-4-fluoro-6-methylphenylamino)-2-(tetrahydro-2H-pyran-4-ylamino)-9H-purin-9-yl)cyclohexanecarboxamide] the value was more than 1 µM.

The same assay, now with this note: Homo sapiens; Lox-IMVI anti-proliferative assay, IC50 activity level; read-out: Activity.
`C[C@@H](CO)Nc1ncc2nc(Nc3c(F)cc(F)cc3F)n([C@H]3CC[C@@](C)(C(N)=O)CC3)c2n1` [Example 546, (1R,4s)-4-(2-((S)-1-hydroxypropan-2-ylamino)-8-(2,4,6-trifluorophenylamino)-9H-purin-9-yl)-1-methylcyclohexanecarboxamide]: the IC50 lay within 0.25 to 0.5 µM.
Still for that read-out and setting: the figure for `CC(C)Nc1ncc2nc(Nc3c(F)cc(C#N)cc3Cl)n([C@H]3CC[C@@H](C(N)=O)CC3)c2n1` [Example 430, (1s,4s)-4-(8-(2-chloro-4-cyano-6-fluorophenylamino)-2-(isopropylamino)-9H-purin-9-yl)cyclohexanecarboxamide] is 0.5 to 1 µM.
On the same count and under the same terms, the figure for `C[C@]1(C(N)=O)CC[C@@H](n2c(Nc3c(Cl)cc(C#N)cc3Cl)nc3cnc(N[C@@H]4CCC[C@H](O)C4)nc32)CC1` [Example 569, (1S,4s)-4-(8-(2,6-dichloro-4-cyanophenylamino)-2-((1R,3S)-3-hydroxycyclohexylamino)-9H-purin-9-yl)-1-methylcyclohexanecarboxamide] is less than 0.25 µM.
The same measure, in the same setting: the figure for `C[C@H]1COCC[C@@H]1Nc1ncc2nc(Nc3c(Cl)cc(Cl)cc3Cl)n([C@H]3CC[C@@H](C(N)=O)CC3)c2n1` [Example 500, (1R,4s)-4-(2-((3R,4S)-3-methyltetrahydro-2H-pyran-4-ylamino)-8-(2,4,6-trichlorophenylamino)-9H-purin-9-yl)cyclohexanecarboxamide] is 0.5 to 1 µM; for `NC(=O)[C@H]1CC[C@@H](n2c(Nc3c(F)cc(Cl)cc3F)nc3cnc(N[C@@H]4CCCC[C@H]4O)nc32)CC1` [Example 467, (1S,4s)-4-(8-(4-chloro-2,6-difluorophenylamino)-2-((1R,2R)-2-hydroxycyclohexylamino)-9H-purin-9-yl)cyclohexanecarboxamide] it is more than 1 µM.
As to `C[C@H]1COCC[C@@H]1Nc1ncc2nc(Nc3c(Cl)cc(C#N)cc3Cl)n([C@H]3CC[C@@H](C(N)=O)CC3)c2n1` [Example 496, (1R,4s)-4-(8-(2,6-dichloro-4-cyanophenylamino)-2-((3R,4S)-3-methyltetrahydro-2H-pyran-4-ylamino)-9H-purin-9-yl)cyclohexanecarboxamide], the IC50 was 0.25 to 0.5 µM.
The same measure, in the same setting: for `CC[C@@H](CO)Nc1ncc2nc(Nc3c(F)cc(C#N)cc3Cl)n([C@H]3CC[C@@H](C(N)=O)CC3)c2n1` [Example 433, (1R,4s)-4-(8-(2-chloro-4-cyano-6-fluorophenylamino)-2-((S)-1-hydroxybutan-2-ylamino)-9H-purin-9-yl)cyclohexanecarboxamide] the value was more than 1 µM.
Same read-out and setting: for `N#Cc1cc(F)c(Nc2nc3cnc(NC4CCCOCC4)nc3n2[C@H]2CC[C@@H](C(N)=O)CC2)c(Cl)c1` (stereo partly shown) [Example 543, (1s,4s)-4-(8-(2-chloro-4-cyano-6-fluorophenylamino)-2-(oxepan-4-ylamino)-9H-purin-9-yl)cyclohexanecarboxamide] the value was less than 0.25 µM; for `C[C@]1(C(N)=O)CC[C@H](n2c(Nc3c(F)cc(C#N)cc3Cl)nc3cnc(NC4CCCC4)nc32)CC1` [Example 486, (1r,4r)-4-(8-(2-chloro-4-cyano-6-fluorophenylamino)-2-(cyclopentylamino)-9H-purin-9-yl)-1-methylcyclohexanecarboxamide], 0.5 to 1 µM.
Same read-out and setting: the figure for `C[C@]1(C(N)=O)CC[C@H](n2c(Nc3c(F)cc(C#N)cc3F)nc3cnc(NC4CCCC4)nc32)CC1` [Example 487, (1r,4r)-4-(8-(4-cyano-2,6-difluorophenylamino)-2-(cyclopentylamino)-9H-purin-9-yl)-1-methylcyclohexanecarboxamide] is more than 1 µM; for `C[C@]1(C(N)=O)CC[C@@H](n2c(Nc3c(Cl)cc(Cl)cc3Cl)nc3cnc(NC4CC(F)(F)C4)nc32)CC1` [Example 580, (1s,4s)-4-(2-(3,3-difluorocyclobutylamino)-8-(2,4,6-trichlorophenylamino)-9H-purin-9-yl)-1-methylcyclohexanecarboxamide] it is 0.25 to 0.5 µM; for `CC(C)Nc1ncc2nc(Nc3c(Cl)cc(C#N)cc3Cl)n([C@H]3CC[C@@H](C(N)=O)CC3)c2n1` [Example 431, (1s,4s)-4-(8-(2,6-dichloro-4-cyanophenylamino)-2-(isopropylamino)-9H-purin-9-yl)cyclohexanecarboxamide] it is 0.5 to 1 µM.
Turning to `C[C@]1(C(N)=O)CC[C@@H](n2c(Nc3c(F)cc(Cl)cc3F)nc3cnc(NC4CCCC4)nc32)CC1` [Example 559, (1s,4s)-4-(8-(4-chloro-2,6-difluorophenylamino)-2-(cyclopentylamino)-9H-purin-9-yl)-1-methylcyclohexanecarboxamide], the IC50 fell in the range of 0.25 to 0.5 µM.

Staying with this assay, now noted: Homo sapiens; Lox-IMVI melanoma cell line, anti-proliferative assay; read-out: Activity (IC50 activity level).
`NC(=O)[C@H]1CC[C@@H](n2c(Nc3c(Cl)cc(Cl)cc3Cl)nc3cnc(N[C@@H]4CCCN(Cc5ccccc5)C4)nc32)CC1` [Example 752, (1S,4s)-4-(2-((R)-1-benzylpiperidin-3-ylamino)-8-(2,4,6-trichlorophenylamino)-9H-purin-9-yl)cyclohexanecarboxamide]: the IC50 was more than 1 µM.
